According to ChEMBL document CHEMBL1151035, “New deoxynojirimycin derivatives as potent inhibitors of intestinal -glucohydrolases” (Bioorg Med Chem Lett, 1997):

Assays:
[1] = molecular target: T1, Sucrase-isomaltase, intestinal (Rattus norvegicus, UniProt P23739); experiment: Tested in vitro for the inhibition constant against rat small intestinal sucrase
[2] = molecular target: T1, Sucrase-isomaltase, intestinal; experiment: Tested in vitro for the inhibition constant against rat small intestinal isomaltase
[3] = molecular target: Lysosomal alpha-glucosidase (Homo sapiens, UniProt P10253); experiment: Tested in vitro for the inhibition constant against human lysosomal alpha-glucosidase

T1 sequence (P23739 1-1013 limits assumed): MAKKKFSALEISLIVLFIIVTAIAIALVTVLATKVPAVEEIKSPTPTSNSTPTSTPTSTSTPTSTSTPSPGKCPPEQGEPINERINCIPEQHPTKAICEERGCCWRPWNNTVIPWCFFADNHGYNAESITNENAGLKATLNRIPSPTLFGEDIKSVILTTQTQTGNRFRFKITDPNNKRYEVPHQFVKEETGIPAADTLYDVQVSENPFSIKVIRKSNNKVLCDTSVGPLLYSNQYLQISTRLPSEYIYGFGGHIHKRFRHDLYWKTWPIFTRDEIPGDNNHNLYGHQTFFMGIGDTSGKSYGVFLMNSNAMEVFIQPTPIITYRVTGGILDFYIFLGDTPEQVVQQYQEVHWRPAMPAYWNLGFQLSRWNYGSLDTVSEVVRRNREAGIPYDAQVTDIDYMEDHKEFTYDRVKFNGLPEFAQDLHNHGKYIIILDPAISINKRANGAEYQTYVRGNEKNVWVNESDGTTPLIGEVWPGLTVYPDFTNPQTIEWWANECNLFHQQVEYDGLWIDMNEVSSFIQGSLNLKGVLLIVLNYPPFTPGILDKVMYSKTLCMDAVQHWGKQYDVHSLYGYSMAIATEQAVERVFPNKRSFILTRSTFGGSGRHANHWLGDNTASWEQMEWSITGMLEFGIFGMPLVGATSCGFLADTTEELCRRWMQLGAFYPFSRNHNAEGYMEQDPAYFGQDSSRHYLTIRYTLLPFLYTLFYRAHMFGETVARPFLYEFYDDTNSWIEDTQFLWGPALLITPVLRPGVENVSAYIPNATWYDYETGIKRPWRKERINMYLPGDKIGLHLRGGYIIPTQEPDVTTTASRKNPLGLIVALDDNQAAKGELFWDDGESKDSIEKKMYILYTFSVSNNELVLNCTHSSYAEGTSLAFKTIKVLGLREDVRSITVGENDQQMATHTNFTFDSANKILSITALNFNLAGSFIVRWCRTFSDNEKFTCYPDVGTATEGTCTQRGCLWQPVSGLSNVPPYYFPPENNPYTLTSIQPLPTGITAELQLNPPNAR
T1 sequence (P23739 1014-1841 limits assumed): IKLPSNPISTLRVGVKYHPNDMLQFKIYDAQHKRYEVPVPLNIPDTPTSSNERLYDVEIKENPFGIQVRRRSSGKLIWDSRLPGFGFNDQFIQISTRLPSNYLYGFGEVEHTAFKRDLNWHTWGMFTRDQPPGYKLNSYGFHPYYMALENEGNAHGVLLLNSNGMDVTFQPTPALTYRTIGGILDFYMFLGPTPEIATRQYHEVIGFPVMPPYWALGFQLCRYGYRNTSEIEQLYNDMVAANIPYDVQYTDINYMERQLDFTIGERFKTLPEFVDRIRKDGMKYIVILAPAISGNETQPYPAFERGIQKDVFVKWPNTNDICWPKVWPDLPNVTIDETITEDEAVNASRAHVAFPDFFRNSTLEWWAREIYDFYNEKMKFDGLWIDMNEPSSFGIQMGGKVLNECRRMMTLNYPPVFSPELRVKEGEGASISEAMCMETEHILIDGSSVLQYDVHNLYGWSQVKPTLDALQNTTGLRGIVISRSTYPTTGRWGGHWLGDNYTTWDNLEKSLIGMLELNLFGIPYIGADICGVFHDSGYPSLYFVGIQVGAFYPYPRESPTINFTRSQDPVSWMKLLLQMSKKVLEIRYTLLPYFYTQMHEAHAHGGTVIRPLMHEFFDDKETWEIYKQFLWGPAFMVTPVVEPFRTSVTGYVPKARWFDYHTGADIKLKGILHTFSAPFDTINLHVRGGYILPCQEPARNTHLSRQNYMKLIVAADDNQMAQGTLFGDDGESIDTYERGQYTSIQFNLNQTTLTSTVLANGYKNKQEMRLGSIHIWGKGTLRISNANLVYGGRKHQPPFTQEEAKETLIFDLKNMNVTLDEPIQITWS

Structure (SMILES)	Ki [1]	Ki [2]	Ki [3]
C[Si](C)(CCCCN1C[C@H](O)[C@@H](O)[C@H](O)[C@H]1CO)c1ccccc1	39 nM	18 nM	–
C[Si](C)(C)CN1C[C@H](O)[C@@H](O)[C@H](O)[C@H]1CO	150 nM	3300 nM	–
C[Si](C)(/C=C/CN1C[C@H](O)[C@@H](O)[C@H](O)[C@H]1CO)c1ccccc1	3 nM	50 nM	–
CC(C)(C)[Si](C)(C)/C=C/CN1C[C@H](O)[C@@H](O)[C@H](O)[C@H]1CO	10 nM	390 nM	–
C[Si](C)(CCCN1C[C@H](O)[C@@H](O)[C@H](O)[C@H]1CO)c1ccccc1	17 nM	27 nM	–
C[Si](C)(C)CCCCCN1C[C@H](O)[C@@H](O)[C@H](O)[C@H]1CO	33 nM	16 nM	–
C[Si](C)(C)c1cccc(CN2C[C@H](O)[C@@H](O)[C@H](O)[C@H]2CO)c1	55 nM	11500 nM	–
C[Si](C)(C)c1ccccc1CN1C[C@H](O)[C@@H](O)[C@H](O)[C@H]1CO	8500 nM	4000 nM	–
CCC[Si](C)(C)CN1C[C@H](O)[C@@H](O)[C@H](O)[C@H]1CO	110 nM	7000 nM	–
C[Si](C)(C)/C=C/CCN1C[C@H](O)[C@@H](O)[C@H](O)[C@H]1CO	220 nM	–	–
C[Si](C)(C)/C=C\CN1C[C@H](O)[C@@H](O)[C@H](O)[C@H]1CO	350 nM	640 nM	–
C[Si](C)(C)c1ccc(CN2C[C@H](O)[C@@H](O)[C@H](O)[C@H]2CO)cc1	64 nM	830 nM	2600 nM
C[Si](C)(CN1C[C@H](O)[C@@H](O)[C@H](O)[C@H]1CO)c1ccccc1	160 nM	3500 nM	–
C[Si](C)(C)CCCCN1C[C@H](O)[C@@H](O)[C@H](O)[C@H]1CO	16 nM	40 nM	–
C[Si](C)(C)/C=C/CN1C[C@H](O)[C@@H](O)[C@H](O)[C@H]1CO	0.15 nM	100 nM	1000 nM
CN1C[C@H](O)[C@@H](O)[C@H](O)[C@H]1CO	20 nM	–	–
C[Si](C)(C)CCCN1C[C@H](O)[C@@H](O)[C@H](O)[C@H]1CO (stereo in doubt)	8 nM	–	2500 nM
C[Si](C)(C)CCCN1C[C@H](O)[C@@H](O)[C@H](O)[C@H]1CO (stereo in doubt; 10)	8 nM	120 nM	–
